“Also recorded” adds a separate entry of the source. Read-outs that look alike come from different tables or passages of the source.
Assays:
[1] = tested on: HLA-A2, -A24, -B7, -DR2, -DR3 and -DR4 transgenic mice; type: cell-based; parameters: key to HLA allele this work (HLA restriction by ELISpot): —represents no positive ELISpot response
[2] = tested on: splenocytes of HLA-A24 (A*2402) transgenic mice; type: cell-based; parameters: key to A24: average IFN-γ spots forming cells per million splenocytes: — represents no positive ELISpot response
HLA alleles = conditions: epitopes extracted from the IEDB, humans infected with influenza A, cited from earlier work
[3] = tested on: splenocytes of HLA-DR4 (DRB1*0401) transgenic mice; type: cell-based; parameters: key: — represents no positive ELISpot response
[4] = tested on: splenocytes of HLA-B7 (B*0702) transgenic mice; type: cell-based; parameters: key to B7: average IFN-γ spots forming cells per million splenocytes: — represents no positive ELISpot response
[5] = tested on: splenocytes of HLA-DR3 (DRB1*0301) transgenic mice; type: cell-based; parameters: key to DR3: average IFN-γ spots forming cells per million splenocytes: — represents no positive ELISpot response
[6] = tested on: splenocytes of HLA-DR2 (DRB1*1501) transgenic mice; type: cell-based; parameters: key to DR2: average IFN-γ spots forming cells per million splenocytes: — represents no positive ELISpot response

Sequence	HLA allele this work (HLA restriction by ELISpot) [1]	A24: average IFN-γ spots forming cells per million splenocytes [2]	Published HLA alleles (reported human T cell epitopes) (HLA alleles)	DR4: average IFN-γ spots forming cells per million splenocytes [3]	B7: average IFN-γ spots forming cells per million splenocytes [4]	DR3: average IFN-γ spots forming cells per million splenocytes [5]	DR2: average IFN-γ spots forming cells per million splenocytes [6]	DR3: lowest concentration of peptide giving positive ELISpot response in peptide titration [5]	Published HLA alleles (reported human T cell epitopes) (HLA alleles; listed as NP 402-418)	DR2: lowest concentration of peptide giving positive ELISpot response in peptide titration [6]	A24: lowest concentration of peptide giving positive ELISpot response in peptide titration [2]	Published HLA alleles (reported human T cell epitopes) (HLA alleles; listed as M1 169-185)
ERRNKYLEEHPSAGKDP	DR4	—	DR1, DRB1*0101	121 ± 1(0.1) IFN-γ spots forming cells per million splenocytes	—	—	—					
VLYDKEEIRRIWRQANN	DR3	—	DRB1*1101	—	—	501 ± 42(0.1) IFN-γ spots forming cells per million splenocytes	—	501 ± 42(0.1) μg/ml				
SAGQISTQPTFSVQRNL	DR2	—		—	—	—	207 ± 3(0.1) IFN-γ spots forming cells per million splenocytes		DRB1*0101,; also recorded: DRB1*0404	207 ± 3(0.1) μg/ml		
RMVLASTTAK [reference compound]			HLA-A3 and -A11									
VLSAFDERRNKYLEEHP	—		DRB1*0101									
RGILEDEQMYQRCCNLF	both HLA class I and II alleles	78 ± 4 IFN-γ spots forming cells per million splenocytes		—	—	181 ± 10(0.1) IFN-γ spots forming cells per million splenocytes	—	181 ± 10(0.1) μg/ml			(0.1) μg/ml	
HENRMVLASTTAKAMEQ	DR4	—	A3, A11, DRB1*0701	165 ± 1(0.1) IFN-γ spots forming cells per million splenocytes	—	—	—					
TNPLIRHENRMVLASTT	DR2, DR3	—		—	—	120 ± 4(0.1) IFN-γ spots forming cells per million splenocytes	56 ± 5(0.1) IFN-γ spots forming cells per million splenocytes	120 ± 4(0.1) μg/ml		56 ± 5(0.1) μg/ml		B39, DR2, DRB1*0103,; also recorded: DRB1*1101,; also recorded: DRB1*0701, DRB5*0101
LEVCFMYSDFHFINEQG	DR2	—		—	—	—	64 ± 11(1) IFN-γ spots forming cells per million splenocytes			64 ± 11(1) μg/ml		

From patent US20120294879A1, “CONSENSUS SEQUENCE FOR INFLUENZA A VIRUS” (priority 2009, published 2012)
